Results taken from patent US20240391870A1 (Arcturus Therapeutics, Inc., priority 2023, published 2024).

What was measured:
factor VII = experiment: Factor VII knock down evaluation (LNP with FVII siRNA); assay type: in vivo, Balb/C mice; settings: plasma FVII after 48 h vs saline control; for FVII KD % 0.01 mpk: 0.01 mpk i.v.; for FVII KD % 0.03 mpk: 0.03 mpk i.v.
Protocol: Lipid formulations comprising a FVII siRNA further described below were evaluated for their knockdown activity using the protocol of this example. In the FVII evaluation, seven to eight week-old, female Balb/C mice were purchased from Charles River Laboratories (Hollister, CA). The mice were held in a pathogen-free environment and all procedures involving the mice were performed in accordance with guidelines established by the Institutional Animal Care and Use Committee (IACUC). Lipid nanoparticles containing factor VII siRNA were administered intravenously at a dosing volume of 10 mL/kg and two dose levels (0.03 and 0.01 mg/kg). After 48 h, the mice were anesthetized with isoflurane and blood was collected retro-orbitally into Microtainer® tubes coated with 0.109 M sodium citrate buffer (BD Biosciences, San Diego, CA) and processed to plasma. Plasma specimens were tested for factor VII levels immediately or stored at −80° C. for later analysis. Measurement of FVII protein in plasma was determined using the colorimetric Biophen VII assay kit (Aniara Diagnostica, USA). Absorbance was measured at 405 nm and a calibration curve was generated using the serially diluted control plasma to determine levels of factor VII in plasma from treated animals, relative to the saline-treated control animals.

hEPO = hEPO mRNA expression evaluation (hEPO-LNPs); assay type: in vivo, Balb/c mice; settings: serum hEPO after 6 hr; for EPO exprssn (ng/mL) 0.03 mpk: 0.03 mpk i.v.; for EPO exprssn (ng/mL) 0.1 mpk: 0.1 mpk i.v.
Protocol: Protocol for hEPO mRNA Expression Evaluation
Lipid formulations comprising a hEPO mRNA below were evaluated for their ability to express hEPO in vivo according to the protocol of this example. All animal experiments were conducted using institutionally-approved protocols (IACUC). In this protocol, female Balb/c mice at least 6-8 weeks of age were purchased from Charles River Laboratory. […] After 6 hr, blood was collected with serum separation tubes, and the serum was isolated by centrifugation. Serum hEPO levels were then measured using an ELISA assay (Human Erythropoietin Quantikine IVD ELISA Kit, R&D Systems, Minneapolis, MD).

Mouse plasma stability = assay type: in vitro ADME, CD-1 mouse; settings: 1 uM lipid
Protocol: Lipid stock solution was prepared by dissolution of the lipid in isopropanol at the concentration of 5 mg/mL. A requisite volume of the lipid-isopropanol solution was then diluted to 100 μM concentration at a total volume of 1.0 mL with in 50:50 (v/v) ethanol/water. Ten microliters of this 100 μM solution was spiked into 1.0 mL of mouse plasma (BioIVT, Cat. No.: MSE00PLNHUNN, CD-1 mouse, anticoagulant: sodium heparin, not filtered) that was pre-warmed to 37° C. and was stirred at 50 rpm with a magnetic stir bar. The starting concentration of lipids in plasma was thus 1 μM. At time points 0, 15, 30, 45, 60 and 120 min, 0.1 mL of the plasma was withdrawn from the reaction mixture and the protein was precipitated by adding 0.9 mL of ice-cold 4:1 (v/v) acetonitrile/methanol with 1 μg/mL of a selected internal standard lipid added. After filtration through a 0.45 micron 96-well filtering plate, the filtrates were analyzed by LC-MS (Thermo Fisher's Vanquish UHPLC—LTQ XL linear ion trap Mass Spectrometer); Waters XBridge BEH Shield RP18 2.5 micron (2.1×100 mm) column with its matching guard column. Mobile phase A was 0.1% formic acid in water, and mobile phase B was 0.1% formic acid in 1:1 (v/v) acetonitrile/methanol. Flow rate was 0.5 ml/min. Elution gradient was: Time 0-1 min: 10% B; 1-6 min: 10%-95% B; 6-8.5 min: 95% B; 8.5-9 min: 95%-10% B; 9-10 min: 10% B. Mass spectrometry was in positive scanning mode from 600-1100 m/z. The peak of the molecular ion of the lipids was integrated in the extracted ion chromatography (XIC) using Xcalibur software (Thermo Fisher). The relative peak area compared to T=0, after normalization by the peak area of the internal standard, was used as the percentage of the lipid remaining at each time point. T1/2 values were calculated using the first-order decay model.

[1] = Measured pKa in the indicated formulation; settings: for pKa: EPO: measured in EPO formulation; for pKa: FVII: measured in FVII formulation
Protocol: Measured pKa values were determined based on the pH measured in the indicated formulation (i.e., EPO or FVII formulation).

[2] = In vivo biodegradability assay (lipid in liver); settings: mouse liver, 48 h
Protocol: In vivo biodegradability assay was performed to assess the biodegradability of lipids in the LNP. Briefly, mice were injected with either 0.1 or 0.03 mg/Kg dose and after 24 or 48 hours mice livers were collected. To measure the concentration of lipids in the mouse liver, liver samples were homogenized in appropriate buffer in 1-10 dilution and mixed with the same amount of stabilized plasma. The samples were then mixed with organic solvents spiked with internal standard to precipitate proteins. After centrifugation, supernatant was diluted further with organic solvent before sample analysis by LC-MS. In LC-MS analysis, positive electrospray ionization was used, and multiple reaction monitoring (MRM) parameters were set up to specifically target the lipid analyte and internal standard. Calibration standards were prepared in stabilized plasma and mixed with same amount of homogenization buffer before protein precipitation. Quality control samples with known amounts of lipid was prepared in blank liver homogenate to monitor the precision and accuracy of the assay.

| Percent remaining in mouse plasma after 2 h (Mouse plasma stability; Table 1, mouse plasma 37 C) | Percent remaining in mouse plasma after 2 h (Mouse plasma stability; Table 2, mouse plasma 37 C) | pKa ([1]; EPO formulation) | pKa ([1]; FVII formulation) | pKa: EPO ([1]; Table 2) | pKa: FVII ([1]; Table 2) | In vivo degradability (ng/tissue) at 48h 0.03 mpk ([2]; Table 1) | In vivo degradability (ng/tissue) at 48h 0.1 mpk ([2]; Table 1) | In vivo degradability (ng/tissue) at 48h 0.03 mpk ([2]; Table 2) | In vivo degradability (ng/tissue) at 48h 0.1 mpk ([2]; Table 2) | Structure (SMILES) | FVII KD % 0.01 mpk (factor VII; Table 1) | FVII KD % 0.03 mpk (factor VII; Table 1) | FVII KD % 0.01 mpk (factor VII; Table 2) | FVII KD % 0.03 mpk (factor VII; Table 2) | EPO exprssn (ng/mL) 0.03 mpk (hEPO; Table 1) | EPO exprssn (ng/mL) 0.1 mpk (hEPO; Table 1) | EPO exprssn (ng/mL) 0.03 mpk (hEPO; Table 2) | EPO exprssn (ng/mL) 0.1 mpk (hEPO; Table 2) | pKa: EPO ([1]; Table 1) | pKa: FVII ([1]; Table 1) |
| --- | --- | --- | --- | --- | --- | --- | --- | --- | --- | --- | --- | --- | --- | --- | --- | --- | --- | --- | --- | --- |
| 40% | 40% | 6.6 | 6.68 | 6.6 | 6.68 | BLOQ | BLOQ | BLOQ | BLOQ | CN(C)CCCSC(=O)N(CCCC(=O)OC(COC(=O)CCCC1CCCCC1)COC(=O)CCCC1CCCCC1)CCCC(=O)OC(COC(=O)CCCC1CCCCC1)COC(=O)CCCC1CCCCC1 [LIPID 11, ((4,4′-((((3-(Dimethylamino)propyl)thio)carbonyl)azanediyl)bis(butanoyl))bis(oxy))bis(propane-2,1,3-triyl)tetrakis(4-cyclohexylbutanoate)] | 84% | 22% | 84% | 22% | 169 ng/mL | 548 ng/mL | 169 ng/mL | 548 ng/mL | – | – |
| 36% | 36% | 6.46 | 6.67 | 6.46 | 6.67 | BLOQ | BLOQ | BLOQ | BLOQ | CN(C)CCCSC(=O)N(CCCC(=O)OC(COC(=O)CCC1CCCCC1)COC(=O)CCC1CCCCC1)CCCC(=O)OC(COC(=O)CCC1CCCCC1)COC(=O)CCC1CCCCC1 [LIPID 10, ((4,4′-((((3-(Dimethylamino)propyl)thio)carbonyl)azanediyl)bis(butanoyl))bis(oxy))bis(propane-2,1,3-triyl)tetrakis(3-cyclohexylpropanoate)] | 92% | 83% | 92% | 83% | 387 ng/mL | 1179 ng/mL | 387 ng/mL | 1179 ng/mL | – | – |

| Structure (SMILES) | Percent remaining in mouse plasma after 2 h (Mouse plasma stability; Table 1, mouse plasma 37 C) | Percent remaining in mouse plasma after 2 h (Mouse plasma stability; Table 2, mouse plasma 37 C) | pKa ([1]; EPO formulation) | pKa ([1]; FVII formulation) | pKa: EPO ([1]; Table 2) | pKa: FVII ([1]; Table 2) | In vivo degradability (ng/tissue) at 48h 0.03 mpk ([2]; Table 1) | In vivo degradability (ng/tissue) at 48h 0.1 mpk ([2]; Table 1) | In vivo degradability (ng/tissue) at 48h 0.03 mpk ([2]; Table 2) | In vivo degradability (ng/tissue) at 48h 0.1 mpk ([2]; Table 2) | FVII KD % 0.01 mpk (factor VII; Table 1) | FVII KD % 0.03 mpk (factor VII; Table 1) | FVII KD % 0.01 mpk (factor VII; Table 2) | FVII KD % 0.03 mpk (factor VII; Table 2) | EPO exprssn (ng/mL) 0.03 mpk (hEPO; Table 1) | EPO exprssn (ng/mL) 0.1 mpk (hEPO; Table 1) | EPO exprssn (ng/mL) 0.03 mpk (hEPO; Table 2) | EPO exprssn (ng/mL) 0.1 mpk (hEPO; Table 2) | pKa: EPO ([1]; Table 1) | pKa: FVII ([1]; Table 1) |
| --- | --- | --- | --- | --- | --- | --- | --- | --- | --- | --- | --- | --- | --- | --- | --- | --- | --- | --- | --- | --- |
| CCC1CCC(C(=O)OCC(COC(=O)C2CCC(CC)CC2)OC(=O)CCCN(CCCC(=O)OC(COC(=O)C2CCC(CC)CC2)COC(=O)C2CCC(CC)CC2)C(=O)SCCCN(C)C)CC1 (centres unmarked) [LIPID 16, ((4,4′-((((3-(Dimethylamino)propyl)thio)carbonyl)azanediyl)bis(butanoyl))bis(oxy))bis(propane-2,1,3-triyl)tetrakis(4-ethylcyclohexane-1-carboxylate)] | 40% | 40% | 6.5 | 6.45 | – | – | <340 ng/tissue | <340 ng/tissue | <340 ng/tissue | <340 ng/tissue | 58% | 88% | 58% | 88% | 2088 ng/mL | 6358 ng/mL | – | 2088 ng/mL | (6.50/ | 6.45) |
